According to patent US20210300943A1, “OGA INHIBITOR COMPOUNDS” (Janssen Pharmaceutica NV, priority 2018, published 2021):

Target: T1, OGA (Mus musculus, UniProt Q9EQQ9)
T1 construct: from tissue; host or cells: mouse brain (right hemisphere sagittal sections, forebrain area)
T1 sequence (Q9EQQ9 1-916): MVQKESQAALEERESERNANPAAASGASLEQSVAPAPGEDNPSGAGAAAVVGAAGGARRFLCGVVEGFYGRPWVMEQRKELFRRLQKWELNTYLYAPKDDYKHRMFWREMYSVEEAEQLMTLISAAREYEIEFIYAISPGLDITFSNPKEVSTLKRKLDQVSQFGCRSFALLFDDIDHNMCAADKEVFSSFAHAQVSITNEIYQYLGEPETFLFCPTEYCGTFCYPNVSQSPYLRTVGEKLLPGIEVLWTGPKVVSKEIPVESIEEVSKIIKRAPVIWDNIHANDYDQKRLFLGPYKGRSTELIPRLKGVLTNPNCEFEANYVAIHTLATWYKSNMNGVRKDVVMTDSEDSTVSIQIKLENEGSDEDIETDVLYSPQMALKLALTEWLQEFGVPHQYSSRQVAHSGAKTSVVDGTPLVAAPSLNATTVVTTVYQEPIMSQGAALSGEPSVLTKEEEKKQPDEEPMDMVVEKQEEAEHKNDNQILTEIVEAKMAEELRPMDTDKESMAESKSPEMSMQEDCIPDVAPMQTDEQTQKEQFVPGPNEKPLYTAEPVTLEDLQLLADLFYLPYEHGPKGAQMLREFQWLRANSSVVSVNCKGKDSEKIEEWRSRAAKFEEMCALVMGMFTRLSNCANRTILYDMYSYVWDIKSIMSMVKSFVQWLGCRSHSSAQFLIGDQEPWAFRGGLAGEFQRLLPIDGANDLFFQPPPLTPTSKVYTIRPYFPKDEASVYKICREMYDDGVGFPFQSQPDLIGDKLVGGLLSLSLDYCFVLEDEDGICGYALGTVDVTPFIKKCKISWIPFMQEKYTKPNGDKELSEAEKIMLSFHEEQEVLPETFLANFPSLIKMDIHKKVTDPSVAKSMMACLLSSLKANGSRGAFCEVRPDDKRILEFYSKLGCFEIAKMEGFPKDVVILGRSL
Assay: Ex vivo OGA occupancy assay using [3H]-ligand
Format: in vivo
Conditions: po, male NMRI or C57Bl6j mice, p.o., 24 h after administration, forebrain area of brain sections, 3 nM [3H]-ligand, normalised to vehicle, read-out: Occupancy (% +/- sd)
Experimental: Ex Vivo Oga Occupancy Assay Using [^3H]-Ligand
Drug Treatment and Tissue Preparation
Male NMRI or C57Bl6j mice were treated by oral (p.o.) administration of vehicle or compound. Animals were sacrificed 24 hours after administration. Brains were immediately removed from the skull, hemispheres were separated and the right hemisphere, for ex vivo OGA occupancy assay, was rapidly frozen in dry-ice cooled 2-methylbutane (−40° C.). […] sagittal sections were cut using a Leica CM 3050 cryostat-microtome (Leica, Belgium), thaw-mounted on microscope slides (SuperFrost Plus Slides, Thermo Fisher Scientific) and stored at −20° C. until use. After thawing, sections were dried under a cold stream of air. The sections were not washed prior to incubation. The 10 minutes incubation with 3 nM [^3H]-ligand was rigorously controlled. All brain sections (from compound-treated and vehicle-treated animals) were incubated in parallel. […]
Quantitative autoradiography and data analysis Radioactivity in the forebrain area of brain slices was measured using a β-imager with M3 vision analysis software (Biospace Lab, Paris). Specific binding was calculated as the difference between total binding and non-specific binding measured in Thiamet-G (10 μM) treated sections. […]

Row | SMILES | receptor occupancy at 25 mg/kg [%]
1 | Cc1cc([C@H]2CCCN(C(C)c3cnc4c(c3)OCCN4)C2)cc(C)n1 (single isomer, unassigned) [Product 135] | 20.7
2 | Cc1cc(OC[C@H]2CCCN(C(C)c3nc4c(cc3F)OCCO4)C2)cc(C)n1 (single isomer, unassigned) [Product 155] | 92.7
